Among the test systems are SK-MEL-28; NCI-H23; KM12; TK-10; OVCAR-5; T47D; 786-0; CAKI-1; MCF7; Malme-3M; EKVX; MDA-MB-435; A549; U-251; LOX IMVI; MOLT-4; OVCAR-4; HOP-62; NCI-H460; SK-MEL-2.
Common to all, as to assay: NCI anticancer screen, dose series, 48 h

SMILES strings stand for the structures.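 A five-concentration, 48-hour dose response in 96-well plates underlies each endpoint, interpolated linearly between surrounding concentrations. GI50 is the concentration that inhibits growth by half.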 The source made the active and inactive calls. Cut-off read from the data, not from the text of the source: active = GI50 up to about 1.1 µM and inactive = higher.

Consider `COc1ccc2c(c1)[nH]c1c3ccc(OC)cc3oc(=O)c21`, for which the GI50 in the test on SK-MEL-28 was > 100 µM (inactive); in the test on NCI-H23 it was > 100 µM (inactive); in the test with KM12 it was 19.8 µM (inactive); in the test on TK-10 it was > 100 µM (inactive); with OVCAR-5, > 100 µM (inactive); in the test on T47D, > 100 µM (inactive). In addition, the GI50 with 786-0 was 0.432 µM (active); with CAKI-1 it was > 100 µM (inactive); in the test on MCF7 it was 5.73 µM (inactive); in the test on Malme-3M it was > 100 µM (inactive); with EKVX it was > 100 µM (inactive); in the test on MDA-MB-435 it was 0.91 µM (active). In addition, the GI50 in the test on A549, in the test on U-251, in the test with LOX IMVI, with MOLT-4, in the test on OVCAR-4 and with HOP-62 was > 100 µM (inactive) throughout. The GI50 with NCI-H460 and in the test with SK-MEL-2 was > 100 µM (inactive) in each case.

With `O=C1CC2CC(CC3(CO3)C2)C1F` (stereo not drawn), the GI50 with SK-MEL-28, in the test on NCI-H23, in the test on KM12, with TK-10, with OVCAR-5 and in the test on T47D was > 100 µM (inactive) each time. The GI50 in the test with 786-0, with CAKI-1, in the test on MCF7, with Malme-3M, with EKVX and with MDA-MB-435 was > 100 µM (inactive) each time. Besides, the GI50 in the test on A549, in the test with U-251, in the test on LOX IMVI, with MOLT-4, in the test on OVCAR-4 and in the test on HOP-62 was > 100 µM (inactive) each time. Also, the GI50 in the test with NCI-H460 and with SK-MEL-2 was > 100 µM (inactive) each time.

With `CCCC1=C(OC)C(=O)c2c(C)cc(Cl)nc2C1=O`, the GI50 in the test on SK-MEL-28 is 6.81 µM (inactive); in the test with NCI-H23, 4.11 µM (inactive); with KM12 it was 7.29 µM (inactive); with TK-10 it was 19.9 µM (inactive); with OVCAR-5, 14.5 µM (inactive); in the test on T47D, 2.99 µM (inactive). For the same compound, the GI50 is 2.37 µM (inactive) in the test with 786-0; 8.97 µM (inactive) in the test with CAKI-1; 2.47 µM (inactive) with MCF7; 3.02 µM (inactive) in the test on Malme-3M; 7.66 µM (inactive) in the test on EKVX; 1.84 µM (inactive) in the test with MDA-MB-435. The GI50 is 13.6 µM (inactive) in the test with A549; 6.07 µM (inactive) in the test with U-251; 2.01 µM (inactive) in the test on LOX IMVI; 1.55 µM (inactive) with MOLT-4; 6.37 µM (inactive) in the test on OVCAR-4; 15.5 µM (inactive) with HOP-62. For the same compound, the GI50 is 13.7 µM (inactive) in the test with NCI-H460 and 10.5 µM (inactive) in the test with SK-MEL-2.

On to `CC1=NNC(=O)[C@H]2[C@H]1CCC1[C@@H]2CC[C@]2(C)[C@@H](O)CC[C@@H]12` (stereo partly drawn), for which the GI50 with SK-MEL-28, in the test on NCI-H23, with KM12, with TK-10, with OVCAR-5 and in the test with T47D was > 100 µM (inactive) each time. Besides, the GI50 with 786-0, in the test with CAKI-1, with MCF7, in the test with Malme-3M, with EKVX and in the test on MDA-MB-435 was > 100 µM (inactive) in each case. Besides, the GI50 with A549, with U-251, in the test with LOX IMVI, in the test on MOLT-4, in the test with OVCAR-4 and with HOP-62 was > 100 µM (inactive) throughout. The GI50 in the test on NCI-H460 and in the test with SK-MEL-2 was > 100 µM (inactive) each time.

On to `CCCCCCCCCCCCCCCCCCNc1ccn(C2OC(COP(=O)(O)OCC3OC(n4cc(F)c(NCCCCCCCCCCCCCCCCCC)nc4=O)CC3O)C(O)C2O)c(=O)n1` (stereo not drawn), for which the GI50 with SK-MEL-28, in the test with NCI-H23, in the test with KM12, in the test on TK-10, in the test with OVCAR-5 and in the test with T47D was > 100 µM (inactive) throughout. For the same compound, the GI50 is > 100 µM (inactive) with 786-0; > 100 µM (inactive) with CAKI-1; > 100 µM (inactive) with MCF7; 42.6 µM (inactive) in the test on Malme-3M; > 100 µM (inactive) in the test with EKVX; > 100 µM (inactive) in the test on MDA-MB-435. Moreover, the GI50 was 82.8 µM (inactive) with A549; 67 µM (inactive) with U-251; > 100 µM (inactive) with LOX IMVI; > 100 µM (inactive) in the test with MOLT-4; > 100 µM (inactive) with OVCAR-4; > 100 µM (inactive) in the test on HOP-62. Also, the GI50 in the test on NCI-H460 and in the test on SK-MEL-2 was > 100 µM (inactive) throughout.

Take `CCCCCCOc1ccc(C(=O)NO)cc1`: the GI50 is 16 µM (inactive) in the test with SK-MEL-28; 7.03 µM (inactive) in the test on NCI-H23; 11.9 µM (inactive) with KM12; 17.1 µM (inactive) with TK-10; 11.6 µM (inactive) with OVCAR-5; 5.83 µM (inactive) in the test with T47D. Also, the GI50 with 786-0 is 3.68 µM (inactive); with CAKI-1, 4.44 µM (inactive); in the test on MCF7 it was 25.8 µM (inactive); in the test on Malme-3M, 11.3 µM (inactive); in the test on EKVX, 15 µM (inactive); in the test with MDA-MB-435, 9.68 µM (inactive). Moreover, the GI50 is 14.3 µM (inactive) in the test on A549; 10.4 µM (inactive) in the test on U-251; 2.17 µM (inactive) with LOX IMVI; 1.07 µM (active) with MOLT-4; 5.74 µM (inactive) in the test with OVCAR-4; 11.8 µM (inactive) with HOP-62. Moreover, the GI50 in the test on NCI-H460 was 4.68 µM (inactive); in the test with SK-MEL-2 it was 12.4 µM (inactive).

`CCNC(=O)/C(=C/c1ccc(OC)cc1)c1cc(OC)c(OC)c(OC)c1`: the GI50 was 5.79 µM (inactive) with SK-MEL-28; 13 µM (inactive) in the test with NCI-H23; 4.23 µM (inactive) in the test on KM12; 20.5 µM (inactive) in the test on TK-10; 63.8 µM (inactive) in the test on OVCAR-5; > 20.4 µM (inactive) with T47D. Moreover, the GI50 is 8.85 µM (inactive) in the test with 786-0; 6.03 µM (inactive) with CAKI-1; 4.84 µM (inactive) in the test on MCF7; 5.53 µM (inactive) in the test on Malme-3M; 64.1 µM (inactive) in the test with EKVX; 2.09 µM (inactive) in the test with MDA-MB-435. Moreover, the GI50 in the test with A549 was 7.62 µM (inactive); in the test with U-251 it was 7.21 µM (inactive); with LOX IMVI, 8.39 µM (inactive); in the test on MOLT-4, 7.35 µM (inactive); with OVCAR-4, 68.2 µM (inactive); in the test with HOP-62 it was 10.9 µM (inactive). The figures for the GI50 with NCI-H460 and in the test with SK-MEL-2 were 5.31 µM (inactive) and 7.57 µM (inactive), respectively.

As to `CN(CCN1CCCC1)C1CCc2cc(Cl)c(Cl)cc2C1` (stereo not drawn), the GI50 is 18.5 µM (inactive) in the test with SK-MEL-28; 15 µM (inactive) with NCI-H23; 20.3 µM (inactive) in the test with KM12; 17.1 µM (inactive) in the test on TK-10; 15.3 µM (inactive) in the test on OVCAR-5; 6.37 µM (inactive) in the test on T47D. For the same compound, the GI50 is 14.7 µM (inactive) in the test with 786-0; 17.3 µM (inactive) with CAKI-1; 14.8 µM (inactive) with MCF7; 18.9 µM (inactive) in the test on Malme-3M; 20.6 µM (inactive) in the test on EKVX; 14.4 µM (inactive) in the test with MDA-MB-435. Further, the GI50 was 16.6 µM (inactive) in the test with A549; 16.1 µM (inactive) in the test with U-251; 15.1 µM (inactive) in the test on LOX IMVI; 24.8 µM (inactive) with MOLT-4; 21.4 µM (inactive) with OVCAR-4; 17.4 µM (inactive) with HOP-62. In addition, the GI50 in the test on NCI-H460 was 16.6 µM (inactive); in the test with SK-MEL-2 it was 17.9 µM (inactive).

For the compound `Cc1cn([C@H]2C[C@H](O)[C@@H](CO)O2)c(=O)nc1N`, the GI50 in the test with SK-MEL-28, in the test on NCI-H23, in the test with KM12, with TK-10, with OVCAR-5 and in the test with T47D was > 100 µM (inactive) each time. In addition, the GI50 with 786-0, with CAKI-1, in the test on MCF7, with Malme-3M, in the test on MDA-MB-435 and in the test with A549 was > 100 µM (inactive) in each case. Further, the GI50 in the test on U-251, in the test with LOX IMVI, with MOLT-4, with OVCAR-4, with HOP-62 and in the test with NCI-H460 was > 100 µM (inactive) each time. Further, the GI50 in the test on SK-MEL-2 was > 100 µM (inactive).

`CC(=O)/C(=C\Nc1c(C)n(C)n(C)c1=O)C(=O)c1ccccc1`: the GI50 in the test with SK-MEL-28, in the test on NCI-H23, in the test on TK-10, with OVCAR-5, in the test with T47D and with 786-0 was > 50 µM (inactive) in each case. Besides, the GI50 with CAKI-1, in the test on MCF7, with Malme-3M, in the test with EKVX, in the test with MDA-MB-435 and in the test on A549 was > 50 µM (inactive) throughout. In addition, the GI50 with U-251, with LOX IMVI, in the test on MOLT-4, with OVCAR-4, in the test with HOP-62 and in the test on NCI-H460 was > 50 µM (inactive) throughout. In addition, the GI50 in the test on SK-MEL-2 is > 50 µM (inactive).

The values are drawn from ChEMBL document CHEMBL1201862, “PubChem BioAssay data set” (2004).
